Target: human kallikrein 7 (Homo sapiens, UniProt P49862)
Assay: Kallikrein-7 inhibitory activity in vitro (fluorescence-quenched substrate)
Type: biochemical

Chain of human kallikrein 7 (P49862 30-253): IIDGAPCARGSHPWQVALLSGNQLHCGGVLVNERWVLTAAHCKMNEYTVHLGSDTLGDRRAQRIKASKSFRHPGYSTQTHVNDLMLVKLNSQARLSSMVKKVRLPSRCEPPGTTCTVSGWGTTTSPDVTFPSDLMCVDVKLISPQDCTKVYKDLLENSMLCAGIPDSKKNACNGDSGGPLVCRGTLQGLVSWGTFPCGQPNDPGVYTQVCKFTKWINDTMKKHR

With CCC(C)[C@@H]1NC(=O)[C@H](Cc2ccc(O)cc2)N(C)C(=O)[C@H](C(C)CC)N2C(=O)C(CC[C@@H]2O)NC(=O)[C@H](CC(C)C)NC(=O)[C@@H](NC(=O)[C@H](CCC(N)=O)NC(=O)C(C)C)[C@@H](C)OC1=O (some centres unmarked) [formula II] the IC50 (hKallikrein7 IC50, Table 10) was 1 nM and the IC50 (hKallikrein7 IC 50, Table 11) was 1 nM.
